Measurements reported in BindingDB's records for doi:10.1016/j.bmcl.2007.02.040 (Merck Research Laboratories, 2007).

Target: Dipeptidyl peptidase 4 (Homo sapiens, UniProt P27487)
Assay: Dipeptidyl Peptidase Inhibition Assay
Details: pH 7.5; 37 °C

Sequence of Dipeptidyl peptidase 4 (P27487 whole entry): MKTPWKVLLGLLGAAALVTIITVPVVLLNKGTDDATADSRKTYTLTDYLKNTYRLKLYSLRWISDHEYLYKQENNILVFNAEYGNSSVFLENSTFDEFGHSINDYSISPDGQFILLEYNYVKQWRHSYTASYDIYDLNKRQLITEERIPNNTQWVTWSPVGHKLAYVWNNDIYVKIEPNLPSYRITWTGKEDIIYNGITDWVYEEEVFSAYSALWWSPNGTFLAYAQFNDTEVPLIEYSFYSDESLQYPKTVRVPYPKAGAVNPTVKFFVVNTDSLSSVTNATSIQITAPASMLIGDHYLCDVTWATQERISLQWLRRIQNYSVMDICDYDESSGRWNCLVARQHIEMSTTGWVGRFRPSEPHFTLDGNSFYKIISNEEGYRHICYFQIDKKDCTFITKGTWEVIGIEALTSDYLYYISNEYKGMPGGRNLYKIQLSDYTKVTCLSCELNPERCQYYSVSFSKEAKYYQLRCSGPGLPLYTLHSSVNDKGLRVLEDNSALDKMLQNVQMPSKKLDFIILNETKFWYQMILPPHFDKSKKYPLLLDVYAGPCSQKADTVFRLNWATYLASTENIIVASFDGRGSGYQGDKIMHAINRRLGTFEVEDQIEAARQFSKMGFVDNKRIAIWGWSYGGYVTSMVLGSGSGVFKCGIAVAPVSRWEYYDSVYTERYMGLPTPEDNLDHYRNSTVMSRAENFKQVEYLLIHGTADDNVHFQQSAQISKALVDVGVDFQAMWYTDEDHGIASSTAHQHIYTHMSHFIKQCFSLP

Structure (SMILES) | IC50 [µM]
CC(C)[C@H](Oc1ccc(CNC(=O)[C@@H]2CCCN2C(=O)C[C@H](N)Cc2c(F)c(F)c(F)c(F)c2F)cc1)C(=O)O [(2S)-2-[4-({[(2S)-1-[(3R)-3-amino-4-(2,3,4,5,6-pentafluorophenyl)butanoyl]pyrrolidin-2-yl]formamido}methyl)phenoxy]-3-methylbutanoic acid] | 0.008
C[C@H](C(=O)N1CCOCC1)[C@@H](C(=O)N(C)C)c1ccc(-c2ccc(F)cc2)cc1 [(2R,3S)-2-[4-(4-fluorophenyl)phenyl]-N,N,3-trimethyl-4-(morpholin-4-yl)-4-oxobutanamide] | 0.52
